Test results as given in patent publication US11440922B2, “Heterocyclylmethylidene derivatives and their use as modulators of mGluR5 receptors” (Recordati Industria Chimica e Farmaceutica S.p.A., priority 2017, dated 2022).

Assays:
[1] = biological target: human mGluR5 receptor (Homo sapiens (Human), UniProt P41594); assay: Radioligand binding assay at cloned human mGluR5 receptor subtype ([3H]MPEP); settings: 4 nM [3H]MPEP, CHO T-REx h-mGluR5 cells, 60 min at 25° C.; read-out: mGlu5 Ki
Source text: (§1) Cell lines stably transfected were generated using inducible expression vectors encoding human mGlu5 receptor using the Tetracycline-Regulated Expression system (T-REx™ system, Invitrogen, Life Technologies). Human mGluR5 open reading frame (ORF), comprehensive of the stop codon, were cloned into the pcDNA4/TO/myc-His™ A vector, carrying the TetO2. The insertion site was HindIII-PstI for mGluR5 receptors. The obtained constructs were then transfected into the T-REx CHO™ cell line using the FuGENE protocol (Roche); the CHO T-REx™ cell line stably expresses the Tet repressor (from the pcDNA6/TR plasmid) under the selection of blasticidin, 10 μg/ml. Stable clones were obtained selecting with zeocin 1 mg/ml and maintaining in ULTRA CHO medium (LONZA) supplemented with dialyzed FBS, zeocin, blasticidine, at 37° C., in an atmosphere of 5% CO2. The expression of h-mGluR5 receptors was de-repressed with 1 μg/ml tetracycline for 18 h before binding experimentation, while the expression of h-mGluR5 receptors was derepressed respectively with 3 ng/ml and 10 ng/ml tetracycline for 18 h before calcium fluorescence experimentation.
Radioligand Binding Assay at Cloned Human mGluR5 Receptor Subtype
Affinity at transmembrane glutamate metabotropic cloned human mGluR5 receptor was evaluated according to the methods of Anderson (Anderson et al., J Pharmacol. Exp. Ther., (2002), Vol. 303(3), pp. 1044-51), with some modifications. Human cloned mGluR5 was obtained by re-suspending CHO T-REx h-mGluR5 cells (50 μg/well) in 20 mM HEPES, 2 mM MgCl2, 2 mM CaCl2, pH 7.4, that then were incubated in a final volume of 1 ml for 60 min at 25° C. with 4 nM [^3H]MPEP in the absence or presence of competing drugs. Non-specific binding was determined in the presence of 10 μM MPEP. The incubation was stopped by addition of cold Tris buffer pH 7.4 and rapid filtration through 0.2% polyethyleneimine pretreated Filtermat 1204-401 (Perkin Elmer) filters. The filters were then washed with cold buffer and the radioactivity retained on the filters was counted by liquid scintillation spectrometry (Betaplate 1204 BS-Wallac).
(§2) The inhibition curves of the tested compounds at cloned mGluR5 subtypes were determined by nonlinear regression analysis using software Prism 4.0 (Graphpad, San Diego, Calif.). The IC50 values and pseudo-Hill slope coefficients were estimated by the program. The values for the inhibition constant, Ki, were calculated according to the equation Ki=IC50/(1+[L]/Kd), where [L] is the concentration of radioligand and Kd is the equilibrium dissociation constant of the radioligand-receptor complex (Cheng et al., Biochem. Pharmacol. (1973), Vol. 22, pp. 3099-3108).

[2] = biological target: T1, human mGlu5 receptor (Homo sapiens (Human), UniProt P41594); assay: Calcium fluorescence measurements, antagonist potency (negative allosteric modulator activity); format: cell-based; settings: EC80 of quisqualate as agonist, compounds applied 10 minutes before agonist
T1 sequence (P41594 21-1212): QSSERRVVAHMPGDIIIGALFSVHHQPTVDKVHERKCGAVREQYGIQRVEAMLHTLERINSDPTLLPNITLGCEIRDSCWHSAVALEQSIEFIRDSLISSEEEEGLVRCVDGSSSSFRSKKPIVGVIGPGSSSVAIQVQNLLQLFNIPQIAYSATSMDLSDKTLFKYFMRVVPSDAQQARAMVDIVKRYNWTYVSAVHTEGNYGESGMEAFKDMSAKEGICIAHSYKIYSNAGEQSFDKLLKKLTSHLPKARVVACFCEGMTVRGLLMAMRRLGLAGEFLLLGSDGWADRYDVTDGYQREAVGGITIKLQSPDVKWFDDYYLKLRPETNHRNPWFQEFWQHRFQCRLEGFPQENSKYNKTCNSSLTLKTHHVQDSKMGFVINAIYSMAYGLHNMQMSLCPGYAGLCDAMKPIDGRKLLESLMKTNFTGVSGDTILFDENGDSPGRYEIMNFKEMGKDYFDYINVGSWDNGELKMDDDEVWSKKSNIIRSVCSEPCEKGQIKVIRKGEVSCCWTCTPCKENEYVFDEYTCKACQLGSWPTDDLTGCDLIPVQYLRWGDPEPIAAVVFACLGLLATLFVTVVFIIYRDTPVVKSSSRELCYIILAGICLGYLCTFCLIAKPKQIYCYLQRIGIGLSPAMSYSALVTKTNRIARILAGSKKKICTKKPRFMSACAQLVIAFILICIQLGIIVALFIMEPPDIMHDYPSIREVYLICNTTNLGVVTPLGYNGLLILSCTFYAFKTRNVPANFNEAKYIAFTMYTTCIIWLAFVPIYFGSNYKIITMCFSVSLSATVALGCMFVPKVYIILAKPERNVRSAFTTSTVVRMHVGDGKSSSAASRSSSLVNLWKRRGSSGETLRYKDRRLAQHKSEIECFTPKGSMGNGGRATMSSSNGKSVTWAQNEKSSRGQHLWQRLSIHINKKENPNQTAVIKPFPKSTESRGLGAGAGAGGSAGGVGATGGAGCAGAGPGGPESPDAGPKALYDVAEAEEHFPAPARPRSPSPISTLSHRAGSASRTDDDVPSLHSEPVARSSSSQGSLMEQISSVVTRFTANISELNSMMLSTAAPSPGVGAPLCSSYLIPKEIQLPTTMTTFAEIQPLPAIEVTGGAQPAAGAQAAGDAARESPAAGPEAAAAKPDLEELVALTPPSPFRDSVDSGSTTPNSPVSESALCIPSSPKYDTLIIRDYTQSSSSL
Source text: as §1
(§3) Cells were seeded into black-walled, clear-bottom, 96-well plates at a density of 80000 cell/well, in RPMI (without Phenol Red, without L-glutamine; Gibco LifeTechnologies, CA) supplemented with 10% dialyzed FBS. Following 18-h incubation with tetracycline, the cells were loaded with […] Ca^2+-sensitive fluorescent dye Fluo-4/AM (Molecular Probes) in Hanks' balanced saline solution (HBSS, Gibco LifeTechnologies, CA) with […] Hepes (Sigma) and 2.5 mM probenecid (Sigma), for 1 h at 37° C. The cells were washed three times with HBSS to remove extracellular dye. Fluorescence signals were measured by using the fluorescence microplate reader Flexstation III (Molecular Devices) at sampling intervals of 1.5 s for 60 s.
(§4) The antagonist potency was determined using the EC80 of the quisqualate used as agonist and the potentiation of mGlu5 activation was determined using the EC20 of the agonist (quisqualate or glutamate). The compounds were applied 10 minutes before the application of the agonist.
(§5) The negative allosteric modulator activity (expressed as IC50) and the positive allosteric modulator activity (expressed as EC50) of the compounds of the invention for the mGlu5 receptors is between 0.1 and 1000 nM.
as §2

[3] = tested on: conscious rats; assay: Effect on cystometry in conscious rats; format: in vivo, rat; settings: Minimal Effective Dose that induces statistically significant increase of bladder volume capacity
Method: Male Sprague-Dawley rats [Crl:CD(SD) IGS BR] of 300-400 g b.w. supplied by Charles River Italia were used. The animals were housed with free access to food and water and maintained on a forced 12-hour-light/12-hour-dark cycle at 22-24° C. of temperature, except during the experiment. To quantify urodynamic parameters in conscious rats, cystometrographic studies were performed according to the procedure previously reported (Guarneri et al., Pharmacol. Res. Vol. 24, No. 2, pp. 175-187, 1991).
Briefly, the rats were anaesthetized by intraperitoneal administration of 3 ml/kg of Equithensin solution (pentobarbital 30 mg/kg and chloral hydrate 125 mg/kg) and placed in a supine position. An approximately 10 mm long midline incision was made in the shaved and cleaned abdominal wall. The urinary bladder was gently freed from adhering tissues, emptied and then cannulated via an incision in the bladder body, using a polyethylene cannula (0.58 mm internal diameter, 0.96 mm external diameter) which was permanently sutured with silk thread. […]
On the day of the experiment, the rats were placed in modified Bollman cages, i.e., restraining cages that were large enough to permit the rats to adopt a normal crouched posture, but narrow enough to prevent turning around. […] The intraluminal-pressure signal during infusion of saline into the bladder (cystometrogram) was continuously recorded on a polygraph (Rectigraph-8K San-ei with BM614/2 amplifier from Biomedica Mangoni) or stored on PC by data acquisition system (PowerLab, Chart 4 software, AD Instruments). From the cystometrogram, bladder volume capacity (BVC) was evaluated. […] Basal BVC value was evaluated as the mean of the values observed in the cystometrograms recorded in an initial period of 30-60 minutes. […] The bladder infusion restarted and changes in BVC were evaluated from the mean values obtained in the cystometrograms observed during 1, 2, and 3 hours after treatment. […]
Each experimental group was composed of 4-11 animals. All data were expressed as mean±standard error. […]

[4] = biological target: T1, human mGlu5 receptor; assay: Calcium fluorescence measurements, potentiation of mGlu5 activation (positive allosteric modulator activity); format: cell-based; settings: EC20 of the agonist (quisqualate or glutamate), compounds applied 10 minutes before agonist
Source text: as §1, §3, §4, §5

[5] = biological target: T1, human mGlu5 receptor; assay: Fold shift of agonist curve determination; format: cell-based; settings: ratio of EC50 agonist (quisqualate or glutamate) curves in presence and in absence of test compound; compound at 1 μM
Source text: as §1, §3
The PAM potency was evaluated by performing an agonist concentration response curve in the presence of the compounds. The compounds at fixed concentration (0.01 or 0.1 or 1 μM) were applied 10 minutes before the incubation of the agonist (quisqualate or glutamate) dose-response curve. The fold shift was determined as ratio of EC50 agonist curves in presence and in absence of test compound. For instance, and in particular compound 34 has a fold shift of 2.7.

[6] = tested on: C57/BL/6J mice; assay: Novel object recognition test in mice; format: in vivo, mouse; settings: intraperitoneal route, 30 min before training, memory assessed 24 h after training
Method: Novel object memory was assessed during three sessions. This task relies on the innate tendency of a mouse to explore unfamiliar objects vs. familiar objects. Testing was performed in an open-field arena. 24 h prior to training, C57/BL/6J 5-week male mice were habituated to the arena for 10 min (session 1).
During training, mice were administered by intraperitoneal route with the vehicle or the tested compound and after 30 min they were allowed for 5 min to explore two identical objects (A+A, session 2). Long-term object memory was assessed 24 h after the completion of training during which mice were given 5 min to explore the familiar (A) or the novel (B) object (A+B, session 3). The duration of exploration (defined as the mouse's snout or forelimbs physically touching or approaching within 1 cm of an object) of familiar and novel object was measured. The amount of time spent exploring the novel object over the total time exploring both novel and familiar object in each session was used to measure object memory.
For instance, and in particular the activity of compound of Example 34, expressed as MED (Minimal Effective Dose that induces statistically significant difference of exploration of the two objects) is of 10 mg/kg. Statistical analysis of exploration time values, was performed by using a paired Student's test, which was calculated using GraphPad Prisma 4.

Sequence of human mGluR5 receptor (P41594 21-1212): as above

SMILES: CCOC(=O)N1CC/C(=C\C#Cc2cc(OC)ccn2)C(C)(C)C1 [Example 25, ethyl (4E)-4-[3-(4-methoxypyridin-2-yl)prop-2-yn-1-ylidene]-3,3-dimethylpiperidine-1-carboxylate]
- Ki [1]: 28.6 nM
- IC50 [2]: 31.8 nM

SMILES: CCOC(=O)N1CC/C(=C\C#Cc2cccc(C#N)c2)C(C)(C)C1 [Example 27, ethyl (4E)-4-[3-(3-cyanophenyl)prop-2-yn-1-ylidene]-3,3-dimethylpiperidine-1-carboxylate]
- Ki [1]: 0.64 nM
- IC50 [2]: 8.6 nM

SMILES: CCOC(=O)N1CC/C(=C\C#Cc2cccc(CC#N)c2)C(C)(C)C1 [Example 28, ethyl (4E)-4-{3-[3-(cyanomethyl)phenyl]prop-2-yn-1-ylidene}-3,3-dimethylpiperidine-1-carboxylate]
- Ki [1]: 2.12 nM
- IC50 [2]: 37.2 nM

SMILES: CCOC(=O)N1CC/C(=C\C#Cc2cc(C#N)ccn2)C(C)(C)C1 [Example 31, ethyl (4E)-4-[3-(4-cyanopyridin-2-yl)prop-2-yn-1-ylidene]-3,3-dimethylpiperidine-1-carboxylate]
- Ki [1]: 2.93 nM
- IC50 [2]: 13.5 nM
- “In vivo” cystometry MED (mg/kg os) [3]: 1 mg/kg

SMILES: CCOC(=O)N1CC/C(=C\C#Cc2cc(F)cc(C#N)c2)C(C)(C)C1 [Example 32, ethyl (4E)-4-[3-(3-cyano-5-fluorophenyl)prop-2-yn-1-ylidene]-3,3-dimethylpiperidine-1-carboxylate]
- Ki [1]: 16.1 nM
- IC50 [2]: 60 nM

SMILES: CC1(C)CN(C(=O)c2cccc(Cl)c2)CC/C1=C\C#Cc1cccc(Cl)c1 [Example 34, (3-chlorophenyl){(4E)-4-[3-(3-chlorophenyl)prop-2-yn-1-ylidene]-3,3-dimethylpiperidin-1-yl}methanone]
- Ki [1]: 0.99 nM
- EC50 [4]: 107 nM
- mGlu5 Fold Shift @1 μM [5]: 2.7
- MED (Minimal Effective Dose that induces statistically significant difference of exploration of the two objects) [6]: 10 mg/kg

SMILES: COC(=O)N1CC/C(=C\C#Cc2cccc(Cl)c2)C(C)(C)C1 [Example 40, methyl (4E)-4-[3-(3-chlorophenyl)prop-2-yn-1-ylidene]-3,3-dimethylpiperidine-1-carboxylate]
- Ki [1]: 1.29 nM
- IC50 [2]: 18.2 nM
- “In vivo” cystometry MED (mg/kg os) [3]: 3 mg/kg

SMILES: CCOC(=O)N1CC/C(=C\C#Cc2cccc(C)n2)C1(C)C [Example 48, ethyl (3E)-2,2-dimethyl-3-[3-(6-methylpyridin-2-yl)prop-2-yn-1-ylidene]pyrrolidine-1-carboxylate]
- Ki [1]: 2.44 nM
- IC50 [2]: 2.02 nM
- “In vivo” cystometry MED (mg/kg os) [3]: 1 mg/kg

SMILES: CCOC(=O)N1CC/C(=C\C#Cc2cc(Cl)ccn2)C1(C)C [Example 91, ethyl (3E)-3-[3-(4-chloropyridin-2-yl)prop-2-yn-1-ylidene]-2,2-dimethylpyrrolidine-1-carboxylate]
- Ki [1]: 16.3 nM
- IC50 [2]: 31.6 nM

SMILES: CCOC(=O)N1CC/C(=C\C#Cc2cccc(Cl)c2)C1(C)C [Example 101, ethyl (3E)-3-[3-(3-chlorophenyl)prop-2-yn-1-ylidene]-2,2-dimethylpyrrolidine-1-carboxylate]
- Ki [1]: 11.2 nM
- IC50 [2]: 66.3 nM
